# Measured values published in US12338253B2, “Nitrogen-containing polycyclic fused ring compound, pharmaceutical composition thereof, preparation method therefor and use thereof” (APPLIED PHARMACEUTICAL SCIENCE, INC., priority 2019, dated 2025).
# Tests used:
# [1] = system: TT cell human medullary thyroid carcinoma xenograft model; experiment: Pharmacodynamic test on TT cell human medullary thyroid carcinoma xenograft model; assay type: in vivo, mice; details: 10 mg/kg, oral, twice a day, 28 consecutive days
# Protocol: TT tumor cells were cultured in F12K medium containing inactivated 10% fetal bovine serum, 100 U/mL penicillin, 100 μg/mL streptomycin and 2 mM glutamine in an incubator at 37° C. and 5% CO2. The cells were cultured at a starting concentration of 1×10^6 cells/mL, and divided and transferred to flasks for sub-culture every 3 to 4 days when they were overgrown. The tumor cells in the logarithmic growth phase were used for tumor inoculation in vivo.
# The TT tumor cells resuspended in serum-free F12K medium at a concentration of 1×10^7 cells+gel/100 μL were inoculated subcutaneously into the right flank of experimental animals. When the tumor grew to about 224 mm^3, the compounds were administered in groups, with 6 animals in each group.
# The mice were orally administered with the test compound twice a day for 28 consecutive days.
# Tumor volume: the long and short diameters of the tumor were measured using a vernier caliper. The volume was calculated by the formula: volume=0.5×long diameter×short diameter^2. Animals were required to have their body weight and tumor size measured twice a week during the administration.
# Reaction of animals after the administration: the experimental animals were weighed while measuring the tumors. The relationship between the change in the animal weight and the time of administration was recorded. At the same time, the survival and health of the mice, such as animal activity, feeding and other general states during the administration were observed.
# Relative tumor proliferation rate T/C (%)=TRTV/CRTV×100% (TRTV: treatment group RTV; CRTV: negative control group RTV), where the relative tumor volume (RTV) is calculated as: RTV=Vt/V0, where V0 is the tumor volume measured at the time of group administration (that is, day 1 of the administration), and Vt is the tumor volume at each measurement. Tumor growth inhibition rate TGI (%)=(1−T/C)×100%.
# RET V804M = RET V804M (Homo sapiens (Human), UniProt P07949, V804M); experiment: HTRF kinase activity test, RET V804M; assay type: biochemical; details: for IC50: HTRF KinEASE-TK; for inhibitory activity on RET V804M compared with cabozantinib: comparison in words
# RET V804M, sequence (P07949 29-1114 V804M): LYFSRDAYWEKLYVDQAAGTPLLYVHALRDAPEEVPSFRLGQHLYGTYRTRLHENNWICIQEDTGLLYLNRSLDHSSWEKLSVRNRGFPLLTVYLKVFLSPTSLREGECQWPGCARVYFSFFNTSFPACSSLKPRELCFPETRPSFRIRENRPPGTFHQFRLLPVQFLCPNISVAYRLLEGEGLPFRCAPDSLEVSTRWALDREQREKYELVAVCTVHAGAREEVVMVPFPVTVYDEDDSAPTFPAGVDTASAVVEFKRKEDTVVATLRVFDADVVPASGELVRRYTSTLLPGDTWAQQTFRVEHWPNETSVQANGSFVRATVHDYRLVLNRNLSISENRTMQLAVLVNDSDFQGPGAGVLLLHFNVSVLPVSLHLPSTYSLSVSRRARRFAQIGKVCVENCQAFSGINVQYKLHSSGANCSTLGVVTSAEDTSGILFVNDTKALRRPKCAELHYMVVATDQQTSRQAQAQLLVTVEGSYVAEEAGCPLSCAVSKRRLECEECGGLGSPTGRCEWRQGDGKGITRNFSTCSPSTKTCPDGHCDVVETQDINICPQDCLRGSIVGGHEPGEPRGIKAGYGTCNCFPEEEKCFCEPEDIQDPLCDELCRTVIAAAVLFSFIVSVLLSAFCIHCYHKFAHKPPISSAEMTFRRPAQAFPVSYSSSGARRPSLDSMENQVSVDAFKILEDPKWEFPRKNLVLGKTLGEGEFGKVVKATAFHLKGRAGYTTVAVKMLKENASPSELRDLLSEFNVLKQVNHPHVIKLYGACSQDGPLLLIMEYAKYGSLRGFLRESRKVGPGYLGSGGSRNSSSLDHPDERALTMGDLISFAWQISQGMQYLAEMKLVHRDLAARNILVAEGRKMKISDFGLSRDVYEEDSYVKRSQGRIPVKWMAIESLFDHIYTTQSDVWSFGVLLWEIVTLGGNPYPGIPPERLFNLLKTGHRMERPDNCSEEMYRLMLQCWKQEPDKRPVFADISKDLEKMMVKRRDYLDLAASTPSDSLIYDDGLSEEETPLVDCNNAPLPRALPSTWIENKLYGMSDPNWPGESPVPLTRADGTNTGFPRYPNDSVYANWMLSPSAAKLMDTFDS
# TT Cell = experiment: TT cell activity test (CelltiterGlo, 72 h); assay type: cell-based, human; details: for IC50: Homo sapiens, TT cell line, 72 h, CTG; for inhibitory activity on TT cells compared with cabozantinib: comparison in words
# Protocol: 2.3 Data Processing % Inhibition (inhibition rate)=100*(HC−test compound well reading)/(HC−LC) • High control (HC, reading control without inhibition): 0.5% DMSO • Low control (LC, control with compound inhibition): 1 μM CEP-32496
# The IC50 values were calculated using GraphPad Prism 6 software. Y=Bottom+(Top−Bottom)/(1+10^((Log IC50−X)*HillSlope)); • X: log of cpd concentration; • Y: % inhibition; • Top and Bottom: plateaus in same units as Y; • Log IC50: same log units as X; and • HillSlope: slope factor The Cell Results are Shown in Table 5: […]
# RET G810R = RET G810R (Homo sapiens (Human), UniProt P07949, G810R); experiment: HTRF kinase activity test, RET G810R; assay type: biochemical; details: for IC50: HTRF KinEASE-TK; for inhibitory activity on RET G810R compared with cabozantinib and selpercatinib (LOXO-292): comparison in words
# RET G810R, sequence (P07949 29-1114 G810R): as the sequence (P07949 29-1114 V804M) above, with M776V, G782R counted along it
# RET wt = RET wt (Homo sapiens (Human), UniProt P07949); experiment: HTRF kinase activity test, RET wt; assay type: biochemical; details: for IC50: HTRF KinEASE-TK; for inhibitory activity on RET wt compared with cabozantinib: comparison in words
# RET wt, sequence (P07949 29-1114): as the sequence (P07949 29-1114 V804M) above, with M776V counted along it
# [2] = system: Ba/F3 cell KIF5B-RET-V804M fusion xenograft model; experiment: Pharmacodynamic test on Ba/F3 cell KIF5B-RET-V804M fusion xenograft model; assay type: in vivo, BALB/c nude mice; details: 10 mg/kg; for Tumor growth inhibition rate: oral, twice a day, end of the control experiment (day 8 of the administration); for tumor volume compared with the selpercatinib group: p<0.05
# [3] = end of the experiment (day 14 of the administration)
SMILES,Tumor growth inhibition rate TGI [1] [%],IC50 (RET V804M) [nM],inhibitory activity on RET V804M compared with cabozantinib (RET V804M),IC50 (TT Cell) [nM],inhibitory activity on TT cells compared with cabozantinib (TT Cell),IC50 (RET G810R) [nM],inhibitory activity on RET G810R compared with cabozantinib and selpercatinib (LOXO-292) (RET G810R),IC50 (RET wt) [nM],inhibitory activity on RET wt compared with cabozantinib (RET wt),Tumor growth inhibition rate [2] [%],tumor volume compared with the selpercatinib group ([2]; day 8 of the administration),"tumor volume compared with the selpercatinib group [2, 3]"
"CCOc1cc(-c2ccc(N3CC4CC(C3)N4Cc3ccc(OC)nc3)nc2)c2c3cn[nH]c3nn2c1 [Compound 9, 6-ethoxy-4-(6-(6-((6-methoxypyridin-3-yl)methyl)-3,6-diazabicyclo[3.3.1]heptan-3-yl)pyridin-3-yl)-1H-pyrazolo[3′,4′:3,4]pyrazolo[1,5-a]pyridine]",88.5,0.1,significantly better than that of cabozantinib,5.5,significantly better than that of cabozantinib,1.9,significantly better than that of cabozantinib and selpercatinib (LOXO-292),0.2,significantly better than that of cabozantinib,94,significantly lower than that of the selpercatinib group,significantly lower than that of the selpercatinib group
"COc1ccc(CN2C3CC2CN(c2ccc(-c4cc(OCCF)cn5nc6[nH]ncc6c45)cn2)C3)cn1 [Compound 31, 6-(2-fluoroethoxy)-4-(6-(6-((6-methoxypyridin-3-yl)methyl)-3,6-diazabicyclo[3.3.1]heptan-3-yl)pyridin-3-yl)-1H-pyrazolo[3′,4′:3,4]pyrazolo[1,5-a]pyridine]",87.4,0.1,significantly better than that of cabozantinib,12.7,significantly better than that of cabozantinib,1,significantly better than that of cabozantinib and selpercatinib (LOXO-292),0.1,significantly better than that of cabozantinib,92,significantly lower than that of the selpercatinib group,significantly lower than that of the selpercatinib group
"COc1ccc(CN2C3CC2CN(c2ccc(-c4cc(OCC(F)F)cn5nc6[nH]ncc6c45)cn2)C3)cn1 [Compound 32, 6-(2,2-difluoroethoxy)-4-(6-(6-((6-methoxypyridin-3-yl)methyl)-3,6-diazabicyclo[3.3.1]heptan-3-yl)pyridin-3-yl)-1H-pyrazolo[3′,4′:3,4]pyrazolo[1,5-a]pyridine]",86.9,0.1,significantly better than that of cabozantinib,6.5,significantly better than that of cabozantinib,2.3,significantly better than that of cabozantinib and selpercatinib (LOXO-292),0.1,significantly better than that of cabozantinib,96,significantly lower than that of the selpercatinib group,significantly lower than that of the selpercatinib group
"COc1ccc(CN2C3CC2CN(c2ccc(-c4cc(OCC(C)(C)O)cn5ncc(C#N)c45)cn2)C3)cn1 [Selpercatinib(LOXO-292), Selpercatinib, reference compound]",–,–,–,–,–,–,–,–,–,49,–,–
